The experiment deals with T1, Coproheme decarboxylase (Staphylococcus aureus, UniProt Q2YS77).
T1 sequence (Q2YS77 whole entry): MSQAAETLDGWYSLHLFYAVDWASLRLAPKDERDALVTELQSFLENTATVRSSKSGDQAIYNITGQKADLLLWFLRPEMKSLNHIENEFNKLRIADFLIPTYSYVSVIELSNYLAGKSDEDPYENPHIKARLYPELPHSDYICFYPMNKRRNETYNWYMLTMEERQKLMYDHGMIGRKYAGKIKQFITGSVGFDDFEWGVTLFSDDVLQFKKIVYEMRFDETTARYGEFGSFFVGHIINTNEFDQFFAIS
Nature of the experiment: Fluorescence Titration Assay. To be noted: pH 6.8. The method, then: Titrations using fluorescence spectroscopy were carried out on a Jobin Yvon Horiba FluoroMax-3 fluorimeter in scanning mode. Apo-HemQ (5 μM) was diluted in 0.1 M potassium phosphate buffer, pH 6.8, and titrated with stocks of heme (1 mM in0.1 M NaOH) and protoporphyrin IX (1 mM in DMSO) each diluted to 500 μM at 25 °C.

Structures are written as SMILES. pKd: −log10 of the molar value.

Data on 1 compound can be found in BindingDB's records for doi:10.1074/jbc.M112.442335 (University of Notre Dame, 2013).

Consider `C=Cc1c(C)c2cc3[nH]c(cc4nc(cc5nc(cc1[nH]2)C(C)=C5CCC(=O)O)C(CCC(=O)O)=C4C)c(C)c3C=C`, for which the pKd is 5.66.
